These results are taken from US9981969B2, “Imidazole derivatives and methods of use thereof for improving the pharmacokinetics of a drug” (MERCK SHARP & DOHME CORP., priority 2013, dated 2018).

A value given as a limit tells only on which side of the number the result lay.

In general, IC50 refers to the point on the concentration scale where inhibition reaches its midpoint. Lower therefore signals greater potency.

The target of one assay is T1, CYP3A4 (Homo sapiens, UniProt P08684).
T1 construct: 0.1 mg/mL protein human liver microsomes (BD Gentest); tissue BD Gentest; host or cells: human liver microsomes
T1 sequence (P08684 whole entry): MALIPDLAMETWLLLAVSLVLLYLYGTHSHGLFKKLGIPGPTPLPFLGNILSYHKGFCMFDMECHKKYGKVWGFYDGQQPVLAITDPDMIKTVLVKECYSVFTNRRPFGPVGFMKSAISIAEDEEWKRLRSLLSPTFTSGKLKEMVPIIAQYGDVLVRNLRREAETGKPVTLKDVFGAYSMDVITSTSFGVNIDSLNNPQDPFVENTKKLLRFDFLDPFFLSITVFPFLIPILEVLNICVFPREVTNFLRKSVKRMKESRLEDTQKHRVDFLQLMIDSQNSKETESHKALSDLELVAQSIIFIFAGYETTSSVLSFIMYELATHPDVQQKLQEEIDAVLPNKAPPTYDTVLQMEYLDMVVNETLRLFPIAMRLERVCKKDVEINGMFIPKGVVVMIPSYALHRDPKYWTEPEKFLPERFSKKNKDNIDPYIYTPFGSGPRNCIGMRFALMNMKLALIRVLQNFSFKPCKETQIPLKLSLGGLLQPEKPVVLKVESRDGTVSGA
Nature of the assay: Cocktail assay for CYPs in human liver microsomes, midazolam 1′-hydroxylation (3A4). Type of assay: biochemical. The settings on record: 2 μM midazolam, 10 min at 37° C. The method, boiled down:
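CYP3A4 inhibition was measured in human liver microsomes (0.1 mg/mL protein) with 2 μM midazolam as the probe substrate, 1 mM NAPDH, 3.3 mM MgCl2 and 100 mM potassium phosphate buffer (pH 7.4), incubated 10 min at 37° C. After acetonitrile treatment, metabolite was quantified by LC/MS/MS against a tolbutamide internal standard. Percent inhibition at 6 concentrations gave IC50 by SigmaPlot non-linear regression.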
A general note: Liver microsomes are vesicles of endoplasmic reticulum, rich in cytochrome P450 enzymes.

A further assay concerns the target T2, CYP1A2 (Homo sapiens, UniProt P05177).
T2 construct: 0.1 mg/mL protein human liver microsomes (BD Gentest); tissue BD Gentest; host or cells: human liver microsomes
T2 sequence (P05177 1-516): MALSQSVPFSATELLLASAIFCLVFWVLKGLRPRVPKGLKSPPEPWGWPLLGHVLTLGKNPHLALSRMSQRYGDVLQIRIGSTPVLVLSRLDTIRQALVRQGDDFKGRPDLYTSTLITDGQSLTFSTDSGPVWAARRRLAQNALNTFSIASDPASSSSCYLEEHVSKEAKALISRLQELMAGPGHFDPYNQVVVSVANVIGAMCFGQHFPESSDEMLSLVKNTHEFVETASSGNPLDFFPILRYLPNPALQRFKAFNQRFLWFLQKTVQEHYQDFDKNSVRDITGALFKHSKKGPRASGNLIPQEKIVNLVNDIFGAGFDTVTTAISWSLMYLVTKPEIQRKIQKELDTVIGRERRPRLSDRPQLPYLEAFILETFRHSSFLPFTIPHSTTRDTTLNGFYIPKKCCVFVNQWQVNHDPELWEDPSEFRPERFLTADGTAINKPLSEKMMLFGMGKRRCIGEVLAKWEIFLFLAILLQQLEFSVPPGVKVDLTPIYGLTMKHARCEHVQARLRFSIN
Nature of the assay: Cocktail assay for CYPs in human liver microsomes, phenacetin O-deethylation (1A2). It is filed as biochemical. The settings on record: 10 μM phenacetin, 10 min at 37° C. In a few lines: (§1)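 Pooled human liver microsomes (0.1 mg/mL) with substrate cocktail (10 μM phenacetin, 5 μM diclofenac, 30 μM mephenytoin, 5 μM dextromethorphan), 1 mM NADPH, pH 7.4 phosphate, 10 min at 37 °C. Metabolites by LC/MS/MS; IC50 from % inhibition at 6 concentrations up to 10 μM.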

A further assay addresses T3, CYP2C9 (Homo sapiens, UniProt P11712).
T3 construct: 0.1 mg/mL protein human liver microsomes (BD Gentest); tissue BD Gentest; host or cells: human liver microsomes
The assay is described as follows: Cocktail assay for CYPs in human liver microsomes, diclofenac 4′-hydroxylation (2C9). It is filed as biochemical. The settings on record: 5 μM diclofenac, 10 min at 37° C. The method, boiled down: as §1

The next assay has as its target T4, CYP2C19 (Homo sapiens, UniProt P33261).
T4 construct: 0.1 mg/mL protein human liver microsomes (BD Gentest); tissue BD Gentest; host or cells: human liver microsomes
The assay is described as follows: Cocktail assay for CYPs in human liver microsomes, mephenytoin 4′-hydroxylation (2C19). Type of assay: biochemical. The settings on record: 30 μM mephenytoin, 10 min at 37° C. In a few lines: as §1

The target in another assay is T5, CYP2D6 (Homo sapiens, UniProt P10635).
T5 construct: 0.1 mg/mL protein human liver microsomes (BD Gentest); tissue BD Gentest; host or cells: human liver microsomes
T5 sequence (P10635 whole entry): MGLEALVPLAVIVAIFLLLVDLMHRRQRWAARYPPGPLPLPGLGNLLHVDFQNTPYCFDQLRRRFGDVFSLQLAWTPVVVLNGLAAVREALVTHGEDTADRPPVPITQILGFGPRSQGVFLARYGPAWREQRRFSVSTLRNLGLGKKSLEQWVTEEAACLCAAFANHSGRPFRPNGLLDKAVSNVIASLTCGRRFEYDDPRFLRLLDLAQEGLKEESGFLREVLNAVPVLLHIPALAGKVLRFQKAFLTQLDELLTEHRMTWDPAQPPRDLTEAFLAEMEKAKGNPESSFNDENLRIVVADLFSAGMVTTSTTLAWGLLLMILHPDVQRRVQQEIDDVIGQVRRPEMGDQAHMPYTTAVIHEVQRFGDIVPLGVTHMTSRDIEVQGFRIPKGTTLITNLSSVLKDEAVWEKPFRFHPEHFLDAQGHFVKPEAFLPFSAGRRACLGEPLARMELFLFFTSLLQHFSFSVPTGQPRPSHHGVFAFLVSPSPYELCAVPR
Nature of the assay: Cocktail assay for CYPs in human liver microsomes, dextromethorphan O-demethylation (2D6). Type of assay: biochemical. The settings on record: 5 μM dextromethorphan, 10 min at 37° C. In a few lines: as §1

The next assay has as its target T6, human CYP11B1 (Homo sapiens, UniProt P15538).
T6 construct: expressed in transfected cells
T6 sequence (P15538 25-503): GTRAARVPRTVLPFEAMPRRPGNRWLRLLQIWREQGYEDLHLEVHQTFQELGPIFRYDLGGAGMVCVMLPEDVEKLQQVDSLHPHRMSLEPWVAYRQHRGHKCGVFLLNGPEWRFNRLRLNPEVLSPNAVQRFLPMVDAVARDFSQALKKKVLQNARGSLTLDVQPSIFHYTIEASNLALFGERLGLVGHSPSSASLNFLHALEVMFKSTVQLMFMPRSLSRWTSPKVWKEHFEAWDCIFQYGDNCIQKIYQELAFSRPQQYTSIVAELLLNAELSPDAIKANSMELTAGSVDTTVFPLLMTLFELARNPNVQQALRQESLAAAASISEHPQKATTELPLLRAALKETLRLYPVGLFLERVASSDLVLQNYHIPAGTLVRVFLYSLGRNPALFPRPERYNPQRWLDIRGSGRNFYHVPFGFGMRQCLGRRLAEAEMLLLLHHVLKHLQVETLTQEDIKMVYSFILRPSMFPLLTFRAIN
The assay is described as follows: IC50 vs CYP11B1 by measurement of cortisol synthesis in V79 cells. Type of assay: cell-based. Conditions: V79 cells expressing human CYP11B1, 1500 nM RSS, cortisol HTRF. In a few lines: (§2)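 V79 cells stably expressing CYP11B1 or CYP11B2 were treated with test compound at 10 concentrations (e.g. 10000 down to 0.5 nM), with 1500 nM RSS (CYP11B1) or 750 nM DOC (CYP11B2) as substrate. After ~15 h at RT in the dark, supernatant cortisol/aldosterone was measured by HTRF and back-calculated from a standard curve. IC50 was taken as the inflection point of a four-parameter fit.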
On the technique in general: In TR-FRET formats the signal depends on donor and acceptor labels being close together.

A further assay has as its target T7, human CYP11B2 (Homo sapiens, UniProt P19099).
T7 construct: expressed in transfected cells
T7 sequence (P19099 25-503): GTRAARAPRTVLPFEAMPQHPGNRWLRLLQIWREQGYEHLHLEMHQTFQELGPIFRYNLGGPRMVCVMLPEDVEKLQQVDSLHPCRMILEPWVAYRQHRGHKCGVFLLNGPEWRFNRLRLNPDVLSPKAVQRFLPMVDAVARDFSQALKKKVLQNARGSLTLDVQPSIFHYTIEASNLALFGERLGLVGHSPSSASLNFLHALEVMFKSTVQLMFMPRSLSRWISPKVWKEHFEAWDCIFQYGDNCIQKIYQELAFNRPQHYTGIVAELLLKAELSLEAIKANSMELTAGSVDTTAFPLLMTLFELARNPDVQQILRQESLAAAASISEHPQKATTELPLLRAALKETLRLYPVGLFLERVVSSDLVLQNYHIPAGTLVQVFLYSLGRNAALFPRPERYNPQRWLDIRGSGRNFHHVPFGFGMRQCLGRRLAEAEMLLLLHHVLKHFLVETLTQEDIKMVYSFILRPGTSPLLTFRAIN
Nature of the assay: IC50 vs CYP11B2 by measurement of aldosterone synthesis in V79 cells. It is filed as cell-based. The settings on record: V79 cells expressing human CYP11B2, 750 nM DOC, aldosterone HTRF. The method, boiled down:
as §2

T3 sequence (P11712 whole entry): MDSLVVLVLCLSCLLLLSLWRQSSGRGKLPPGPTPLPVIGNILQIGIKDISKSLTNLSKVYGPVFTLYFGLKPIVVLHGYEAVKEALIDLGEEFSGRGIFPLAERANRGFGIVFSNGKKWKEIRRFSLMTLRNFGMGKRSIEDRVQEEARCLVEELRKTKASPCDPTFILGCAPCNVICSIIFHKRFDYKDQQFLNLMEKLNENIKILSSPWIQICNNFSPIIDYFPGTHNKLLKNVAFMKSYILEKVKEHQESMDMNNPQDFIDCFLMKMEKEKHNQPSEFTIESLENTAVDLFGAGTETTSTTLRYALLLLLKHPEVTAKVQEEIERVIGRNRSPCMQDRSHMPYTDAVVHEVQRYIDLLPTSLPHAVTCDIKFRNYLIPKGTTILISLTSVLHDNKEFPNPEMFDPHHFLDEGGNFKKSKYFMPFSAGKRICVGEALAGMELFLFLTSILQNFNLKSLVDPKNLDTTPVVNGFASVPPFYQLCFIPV
T4 sequence (P33261 whole entry): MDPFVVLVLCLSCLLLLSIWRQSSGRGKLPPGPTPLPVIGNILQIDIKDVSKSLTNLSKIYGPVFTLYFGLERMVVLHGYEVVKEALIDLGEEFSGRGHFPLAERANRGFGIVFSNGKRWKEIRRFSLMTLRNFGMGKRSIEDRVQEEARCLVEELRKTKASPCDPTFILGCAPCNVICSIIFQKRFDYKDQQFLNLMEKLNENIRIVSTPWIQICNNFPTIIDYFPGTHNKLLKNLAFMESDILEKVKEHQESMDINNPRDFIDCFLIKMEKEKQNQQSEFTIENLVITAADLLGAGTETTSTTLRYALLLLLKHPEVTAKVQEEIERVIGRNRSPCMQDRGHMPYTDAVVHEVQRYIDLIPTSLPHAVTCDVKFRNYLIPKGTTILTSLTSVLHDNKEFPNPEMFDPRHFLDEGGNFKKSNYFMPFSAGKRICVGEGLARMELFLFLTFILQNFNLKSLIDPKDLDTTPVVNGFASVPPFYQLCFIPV

For the compound `C[C@@H](c1ccccc1-c1ccc(F)cc1)n1cncc1C(=O)N1CCC2NC(=O)COC2(C)C1` (stereo partly drawn) [Compound 51], the half-inhibitory concentration (IC50) is 0.0048 µM against CYP3A4; over 10 µM at CYP1A2; over 10 µM at CYP2C9; over 10 µM on CYP2C19; over 10 µM against CYP2D6; 20.8 µM at human CYP11B1. Further, on human CYP11B2, the IC50 is over 50 µM.
With `C[C@@H](c1ccccc1-c1ccc(F)cc1)n1cncc1C(=O)N1CCC[C@H]2OCCN[C@@H]2C1` [Compound 52], the concentration for half-maximal inhibition (IC50) at CYP3A4 was 0.0032 µM; against CYP1A2, over 10 µM; on CYP2C9 it was over 10 µM; at CYP2C19, over 10 µM; at CYP2D6, over 10 µM; at human CYP11B1 it was 3.93 µM. The compound further gave an IC50 on human CYP11B2 of over 50 µM.
With `C[C@@H](c1ccccc1-c1ccc(F)cc1)n1cncc1C(=O)N1CCC[C@@H]2OCCN[C@H]2C1` [Compound 53], the IC50 on CYP3A4 is 0.011 µM; against CYP1A2 it was over 10 µM; against CYP2C9, over 10 µM; against CYP2C19, over 10 µM; against CYP2D6, over 10 µM; against human CYP11B1 it was 16.4 µM. The compound also had an IC50 against human CYP11B2 of over 50 µM.
